Experimental data taken from patent US20170066759A1, “AROMATIC 5-MEMBERED HETEROCYCLIC DERIVATIVE HAVING TRPV4-INHIBITING ACTIVITY” (Shionogi & Co., Ltd., priority 2012, published 2017).

What was measured:
[1] = molecular target: T1, CYP2D6 (Homo sapiens, UniProt P10635); experiment: Test Example 6: CYP inhibition test, dextromethorphan O-demethylation (CYP2D6); type: in vitro ADME; details: pooled human hepatic microsome, 5 μmol/L dextromethorphan
T1 construct: enzyme, pooled human hepatic microsome 0.2 mg protein/mL; from tissue; host or cells: pooled human liver microsomes
Experimental: Test Example 6 CYP Inhibition Test […] The reaction conditions were as follows: substrate, 0.5 μmol/L ethoxyresorufin (CYP1A2), 100 μmol/L tolbutamide (CYP2C9), 50 μmol/L S-mephenytoin (CYP2C19), 5 μmol/L dextromethorphan (CYP2D6), 1 μmol/L terfenedine (CYP3A4); reaction time, 15 minutes; reaction temperature, 37° C.; enzyme, pooled human hepatic microsome 0.2 mg protein/mL; concentration of the compound of the present invention, 1, 5, 10, 20 μmol/L (four points). Each five kinds of substrates, human hepatic microsome, and the compound of the present invention in 50 mmol/L Hepes buffer as a reaction solution were added to a 96-well plate at the composition as described above. NADPH, as a cofactor was added to initiate metabolism reactions as markers and, after the incubation at 37° C. for 15 minutes, a methanol/acetonitrile=1/1 (v/v) solution was added to stop the reaction. After the centrifugation at 3000 rpm for 15 minutes, resorufin (CYP1A2 metabolite) in the supernatant was quantified by a fluorescent multilabel counter and toltributamide hydroxide (CYP2[…] metabolite), mephenytoin 4' hydroxide (CYP2C19 metabolite), […], and terfenadine alcohol (CYP3A4 metabolite) were quantified by LC/MS/MS. Addition of only DMSO being a solvent dissolving the compound of the present invention to a reaction system was adopted as a control (100%). Remaining activity (%) was calculated at each concentration of the compound of the present invention added as the solution and IC50 was calculated by reverse presumption by a logistic model using a concentration and an inhibition rate.

[2] = Test Example 11: BA test (oral absorbability); type: in vivo; details: plasma; Mouse, oral administration 1 mg/kg
Experimental: Materials and methods for experiments to evaluate oral absorbability
(1) Experimental animals: rats or mice were used. (2) Breeding condition: rats or mice were allowed free access to solid feed and sterilized tap water (3) Setting of dosage and grouping: Oral administration and intravenous administration were performed with the predetermined dosage. Grouping was set as below. (Dosage varied depending on each compound)
Oral administration 1 to 30 mg/kg (n=2 to 3)
Intravenous administration 0.5 to 10 mg/kg (n=2 to 3)
(4) Preparation of administered liquid: Oral administration was performed using a solution or a suspension. Intravenous administration was performed after solubilization. (5) Method of Administration: In oral administration, compulsory administration to the stomach was conducted using an oral sonde. […] (6) Evaluation items: Blood was chronologically collected, and then concentration of a compound of the present invention in blood plasma was measured using a LC/MS/MS. […]
(7) Statistical analysis: With regard to a shift in plasma concentration of the compound of the present invention, the area under the plasma concentration-time curve (AUC) was calculated using a nonlinear least-squares program, WinNonlin (a registered trademark). Bioavailability (BA) was calculated from the AUCs of the oral administration group and the intravenous administration group. […]

[3] = system: Salmonella typhimurium TA98 strain, TA100 strain; experiment: Test Example 7: FAT test (mutagenicity); design: key: (−) means that mutagenicity is negative; (+) is positive; details: TA98 and TA100 strains, non-metabolism activating and metabolism activating conditions
Experimental: Mutagenicity of a compound of the present invention was evaluated.
[…] of freezing-stored rat typhoid bacillus (Salmonella typhimurium TA98 strain, TA100 strain) was inoculated on 10 mL of a liquid nutrient medium (2.5% Oxoid nutrient broth No. 2), and this was cultured before shaking at 37° C. for 10 hours. 9 mL of a bacterial solution of the TA98 strain was centrifuged (2000×g, 10 minutes) to remove a culturing solution. The bacteria was suspended in 9 mL of a Micro F buffer (K2HPO4: 3.5 g/L, KH2PO4: 1 g/L, (NH4)2SO4: 1 g/L, trisodium citrate dehydrate: 0.25 g/L, MgSO4*7H2O: 0.1 g/L), the suspension was added to 110 mL of an Exposure medium (Micro F buffer containing Biotin: 8 μg/mL, histidine: 0.2 μg/mL, glucose: 8 mg/mL). The TA100 strain was added to 120 mL of the Exposure medium relative to 3.16 mL of the bacterial solution to prepare a test bacterial solution. […] Since a well containing a bacterium which has obtained the proliferation ability by mutation of an amino acid (histidine) synthesizing enzyme gene turns from purple to yellow due to a pH change, the bacterium proliferation well which has turned to yellow in 48 wells per dose was counted, and was assessed by comparing with a negative control group. […]

T1 sequence (P10635 whole entry): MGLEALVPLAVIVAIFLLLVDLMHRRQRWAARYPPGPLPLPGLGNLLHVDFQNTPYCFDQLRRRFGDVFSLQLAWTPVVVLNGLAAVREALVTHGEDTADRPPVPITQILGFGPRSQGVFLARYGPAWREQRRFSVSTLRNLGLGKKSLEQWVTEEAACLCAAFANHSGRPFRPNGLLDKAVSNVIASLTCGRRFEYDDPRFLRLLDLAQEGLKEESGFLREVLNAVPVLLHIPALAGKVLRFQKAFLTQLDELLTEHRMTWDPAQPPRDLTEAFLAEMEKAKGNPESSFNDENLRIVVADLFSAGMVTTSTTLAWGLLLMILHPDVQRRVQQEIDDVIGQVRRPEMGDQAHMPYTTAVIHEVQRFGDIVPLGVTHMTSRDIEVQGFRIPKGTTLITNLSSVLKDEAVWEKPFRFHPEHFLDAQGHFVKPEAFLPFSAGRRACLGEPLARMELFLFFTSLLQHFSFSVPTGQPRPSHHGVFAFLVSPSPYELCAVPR

SMILES | IC50 [1] | bioavailability [2] | Mutagenicity (FAT test) [3]
Cc1nc(C)c(-c2csc(NC(=O)Cc3ccc(S(C)(=O)=O)cc3)n2)s1 [Compound I-17] | > 20 µM | 54.6% | 
Cc1nc(C)c(-c2csc(NC(=O)C3CCC(F)(F)C3)n2)s1 (stereo not drawn) [Compound I-18] |  |  | (−)
